# Assay results from patent US9221800B2, “Isoxazole treatments for diabetes” (The Board of Regents of the University of Texas System, priority 2011, dated 2015).
# “Also recorded” adds a separate entry of the source.
# Test system: MIN6 cells
# Assay: Immunoblotting of MIN6 whole cell lysates
# Assay type: cell-based, mouse
# Protocol: FIGS. 2[…]-1) activates insulin expression and improves β cell function in MIN6 cells. (FIG. 2A) Dose-response relationship of MIN6 cells treated with 5-80 μM Isx for 24 h or DMSO (0.08%-similar to the highest concentration of Isx). Whole cell lysates (40 μg) were subjected to immunoblotting using antibodies against BETA2NeuroD1, MafA, PDX-1, pERK1/2 (pT183/[…]), acetylated histones […] and ACH3K9 and total histone H3. (FIG. 2B) Quantitative RT-PCR of murine insulin1 and insulin2 gene expression in MIN6 cells treated with Isx for 24 h as in FIG. 2A. […] (FIG. 2D) Insulin content measured by ELISA in MIN6 cells treated with Isx for 24 or 48 h. (FIG. 2E) GSIS induced by glucose, amino acids (AA) and Exendin-4 (Ex-4) singly or in combination in MIN6 cells pretreated with Isx for 48 h. FIGS. 4[…]-1) is a HAT activator. (FIG. 4A) Immunoblots of acetylated histones in MIN6 cells pretreated with the indicated inhibitors for 16 h and then treated with vehicle or Isx. (FIGS. 4B-C) HDAC (FIG. 4B) and HAT (FIG. 4C) activities in 50 μg of nuclear extract protein from MIN6 cells treated with Isx or DMSO for 24 h. Trichostatin A (TSA; 2 μM) was added at as a positive control. HeLa nuclear extract also was included as a positive control. […] Statistical analysis was performed using Student's t test as in FIGS. 1A-E. *P<0.05; **P<0.01. (FIG. 4G) Simplified view of the actions of Isx. FIG. 6. Time course of […]-1) treatment in MIN6 cells. Immunoblotting of whole cell extracts from MIN6 cells grown for 24 h in complete DMEM containing […] and treated with 20 μM Isx for from 15 min to 24 h. The control (0 min) was treated with DMSO for 24 h. MIN6 cells were cultured in DMEM (Gibco), containing 25 mM glucose, 10% fetal bovine serum, 10 mM Hepes pH 7.4, 10.2 mM L-glutamine, […] sodium pyruvate, 2.5 mM β-mercaptoethanol, 100 U/ml penicillin and 100 μg/ml streptomycin at 37° C. in 10% CO2. Human islets were obtained from the ICR Basic Science Islet Distribution and from the University of Alabama, Birmingham Islet Resource Facility and were cultured in RPMI 1640 with 11 mM glucose for up to 1 year. The medium was changed twice weekly and the islets were subcultured when they reached 90% confluence. For Isx treatments, cells were incubated in medium containing either Isx or the equivalent volume of DMSO vehicle (0.04%). To measure GSIS, cells were placed in Krebs-Ringer bicarbonate/Hepes containing 0.1% bovine serum albumin and 2 mM glucose for 2 h, and stimulated for 15 min with 20 mM glucose, a 1× amino-acid mixture (concentrations as in DMEM), or 50 nM Exendin-4.
# [1] = 24 h exposure, 5-80 μM Isx (FIG. 2A)
smiles,measurement,setting,value
"O=C(NC1CC1)c1cc(-c2cccs2)on1 [Isx, N-cyclopropyl-5-(thiophen-2-yl)isoxazole-3-carboxamide]","ERK1/2 activation, time course","20 μM Isx, 15 min to 24 h (FIG. 6)",biphasic effect
same,MafA expression,[1],increased substantially
same,PDX-1 expression,[1],little if any change
same,immunoreactive BETA2,[1],increased at all concentrations
same,Acetylation of histone H3 and H4,"MIN6 cells treated with Isx (FIG. 2A, FIG. 4A)",increased; also recorded: marked effect
same,ERK1/2 phosphorylation,following 24 h of exposure,detectable
